Experimental data as given in the NIST ThermoML archive (doi:10.1016/j.jct.2004.12.014).
Numbers after ± are expanded uncertainties.

Tests used:
[1] = xn = mol fraction of the nth substance listed; details: 318.15 K, 101 kPa, Liquid
[2] = excess molar enthalpy (molar enthalpy of mixing); xn = mol fraction of the nth substance listed; details: 318.15 K, 101 kPa, Liquid

CCCCOC(=O)CC [butyl propanoate] + CCCCCCC
Details	excess molar enthalpy [kcal/mol]	excess molar volume [m3/mol]
[1], x1 = 0.0273	–	5.6e-08 ± 1.6e-08
[1], x1 = 0.0572	–	1.25e-07 ± 1.6e-08
[1], x1 = 0.1181	–	2.05e-07 ± 1.6e-08
[1], x1 = 0.1785	–	2.96e-07 ± 1.7e-08
[1], x1 = 0.2334	–	3.5e-07 ± 1.7e-08
[1], x1 = 0.2923	–	3.76e-07 ± 1.7e-08
[1], x1 = 0.3518	–	3.93e-07 ± 1.7e-08
[1], x1 = 0.4089	–	4e-07 ± 1.7e-08
[1], x1 = 0.4681	–	3.95e-07 ± 1.7e-08
[1], x1 = 0.528	–	3.75e-07 ± 1.7e-08
[1], x1 = 0.586	–	3.44e-07 ± 1.7e-08
[1], x1 = 0.6449	–	3.06e-07 ± 1.7e-08
[1], x1 = 0.7036	–	2.6e-07 ± 1.7e-08
[1], x1 = 0.7666	–	2.08e-07 ± 1.6e-08
[1], x1 = 0.8207	–	1.76e-07 ± 1.6e-08
[1], x1 = 0.8838	–	1.05e-07 ± 1.6e-08
[1], x1 = 0.937	–	7.2e-08 ± 1.6e-08
[2], x1 = 0.0476	0.0417 ± 0.00105	–
[2], x1 = 0.1067	0.0841 ± 0.0017	–
[2], x1 = 0.1732	0.121 ± 0.00225	–
[2], x1 = 0.2357	0.146 ± 0.00263	–
[2], x1 = 0.2979	0.163 ± 0.00287	–
[2], x1 = 0.3579	0.176 ± 0.00311	–
[2], x1 = 0.4131	0.183 ± 0.00311	–
[2], x1 = 0.4328	0.185 ± 0.00311	–
[2], x1 = 0.464	0.186 ± 0.00335	–
[2], x1 = 0.475	0.187 ± 0.00335	–
[2], x1 = 0.5206	0.186 ± 0.00335	–
[2], x1 = 0.5701	0.181 ± 0.00311	–
[2], x1 = 0.6256	0.171 ± 0.00311	–
[2], x1 = 0.6846	0.156 ± 0.00287	–
[2], x1 = 0.7498	0.134 ± 0.00239	–
[2], x1 = 0.8152	0.106 ± 0.00203	–
[2], x1 = 0.8835	0.0717 ± 0.00151	–
[2], x1 = 0.9449	0.0357 ± 0.000956	–

CCCCOC(=O)CC [butyl propanoate] + CCCCCCCCC
Details	excess molar enthalpy [kcal/mol]	excess molar volume [m3/mol]
[1], x1 = 0.0333	–	9.9e-08 ± 1.6e-08
[1], x1 = 0.0721	–	1.95e-07 ± 1.6e-08
[1], x1 = 0.139	–	3.26e-07 ± 1.7e-08
[1], x1 = 0.2059	–	4.35e-07 ± 1.8e-08
[1], x1 = 0.2687	–	5.18e-07 ± 1.8e-08
[1], x1 = 0.3345	–	5.69e-07 ± 1.8e-08
[1], x1 = 0.3947	–	5.89e-07 ± 1.8e-08
[1], x1 = 0.4555	–	6.09e-07 ± 1.8e-08
[1], x1 = 0.5165	–	6.08e-07 ± 1.8e-08
[1], x1 = 0.5747	–	5.79e-07 ± 1.8e-08
[1], x1 = 0.6293	–	5.5e-07 ± 1.8e-08
[1], x1 = 0.6868	–	5.08e-07 ± 1.8e-08
[1], x1 = 0.7408	–	4.43e-07 ± 1.8e-08
[1], x1 = 0.7931	–	3.73e-07 ± 1.7e-08
[1], x1 = 0.8466	–	3.03e-07 ± 1.7e-08
[1], x1 = 0.8978	–	2.16e-07 ± 1.7e-08
[1], x1 = 0.9473	–	1.21e-07 ± 1.6e-08
[2], x1 = 0.0694	0.0639 ± 0.00139	–
[2], x1 = 0.1491	0.116 ± 0.00217	–
[2], x1 = 0.2269	0.159 ± 0.00287	–
[2], x1 = 0.302	0.189 ± 0.00335	–
[2], x1 = 0.3723	0.207 ± 0.00359	–
[2], x1 = 0.4365	0.215 ± 0.00359	–
[2], x1 = 0.4936	0.215 ± 0.00359	–
[2], x1 = 0.5364	0.213 ± 0.00359	–
[2], x1 = 0.5441	0.211 ± 0.00359	–
[2], x1 = 0.5775	0.21 ± 0.00359	–
[2], x1 = 0.5891	0.207 ± 0.00359	–
[2], x1 = 0.6309	0.2 ± 0.00359	–
[2], x1 = 0.6873	0.184 ± 0.00311	–
[2], x1 = 0.7512	0.159 ± 0.00287	–
[2], x1 = 0.8149	0.128 ± 0.00237	–
[2], x1 = 0.8787	0.089 ± 0.00177	–
[2], x1 = 0.9424	0.0465 ± 0.00112	–

CCCCOC(=O)CC [butyl propanoate] + CCCCCCCCCCC
Details	excess molar enthalpy [kcal/mol]	excess molar volume [m3/mol]
[1], x1 = 0.0439	–	1.43e-07 ± 1.6e-08
[1], x1 = 0.0844	–	2.51e-07 ± 1.7e-08
[1], x1 = 0.1613	–	4.24e-07 ± 1.7e-08
[1], x1 = 0.2331	–	5.45e-07 ± 1.8e-08
[1], x1 = 0.3029	–	6.41e-07 ± 1.8e-08
[1], x1 = 0.3719	–	7.16e-07 ± 1.9e-08
[1], x1 = 0.4347	–	7.45e-07 ± 1.9e-08
[1], x1 = 0.4991	–	7.49e-07 ± 1.9e-08
[1], x1 = 0.5571	–	7.43e-07 ± 1.9e-08
[1], x1 = 0.6136	–	7.09e-07 ± 1.9e-08
[1], x1 = 0.6682	–	6.64e-07 ± 1.9e-08
[1], x1 = 0.7205	–	6.18e-07 ± 1.8e-08
[1], x1 = 0.7715	–	5.27e-07 ± 1.8e-08
[1], x1 = 0.8193	–	4.41e-07 ± 1.8e-08
[1], x1 = 0.8661	–	3.61e-07 ± 1.7e-08
[1], x1 = 0.9118	–	2.76e-07 ± 1.7e-08
[1], x1 = 0.9546	–	1.35e-07 ± 1.6e-08
[2], x1 = 0.0817	0.0786 ± 0.00163	–
[2], x1 = 0.1628	0.132 ± 0.00239	–
[2], x1 = 0.2473	0.183 ± 0.00311	–
[2], x1 = 0.325	0.215 ± 0.00359	–
[2], x1 = 0.3967	0.234 ± 0.00406	–
[2], x1 = 0.463	0.243 ± 0.00406	–
[2], x1 = 0.4868	0.243 ± 0.00406	–
[2], x1 = 0.5197	0.243 ± 0.00406	–
[2], x1 = 0.5243	0.242 ± 0.00406	–
[2], x1 = 0.5644	0.239 ± 0.00406	–
[2], x1 = 0.6091	0.232 ± 0.00406	–
[2], x1 = 0.6567	0.224 ± 0.00382	–
[2], x1 = 0.7051	0.201 ± 0.00359	–
[2], x1 = 0.7582	0.175 ± 0.00311	–
[2], x1 = 0.8113	0.147 ± 0.00263	–
[2], x1 = 0.8642	0.114 ± 0.00215	–
[2], x1 = 0.9137	0.0779 ± 0.0016	–
[2], x1 = 0.9601	0.04 ± 0.00105	–

CCCCOC(=O)CC [butyl propanoate] + CCCCCCCCCCCCC
Details	excess molar enthalpy [kcal/mol]	excess molar volume [m3/mol]
[1], x1 = 0.0406	–	1.23e-07 ± 1.6e-08
[1], x1 = 0.0973	–	2.84e-07 ± 1.7e-08
[1], x1 = 0.1791	–	4.62e-07 ± 1.8e-08
[1], x1 = 0.2615	–	6.48e-07 ± 1.9e-08
[1], x1 = 0.3352	–	7.42e-07 ± 1.9e-08
[1], x1 = 0.4049	–	8.02e-07 ± 1.9e-08
[1], x1 = 0.4702	–	8.32e-07 ± 1.9e-08
[1], x1 = 0.5333	–	8.34e-07 ± 1.9e-08
[1], x1 = 0.5918	–	8.19e-07 ± 1.9e-08
[1], x1 = 0.6472	–	7.81e-07 ± 1.9e-08
[1], x1 = 0.6989	–	7.36e-07 ± 1.9e-08
[1], x1 = 0.7487	–	6.45e-07 ± 1.8e-08
[1], x1 = 0.7961	–	5.77e-07 ± 1.8e-08
[1], x1 = 0.84	–	4.79e-07 ± 1.8e-08
[1], x1 = 0.8821	–	3.67e-07 ± 1.7e-08
[1], x1 = 0.9219	–	2.68e-07 ± 1.7e-08
[1], x1 = 0.9617	–	1.52e-07 ± 1.6e-08
[2], x1 = 0.0777	0.0756 ± 0.00158	–
[2], x1 = 0.152	0.132 ± 0.00239	–
[2], x1 = 0.2315	0.185 ± 0.00335	–
[2], x1 = 0.3105	0.227 ± 0.00382	–
[2], x1 = 0.3857	0.253 ± 0.0043	–
[2], x1 = 0.4542	0.266 ± 0.00454	–
[2], x1 = 0.5154	0.27 ± 0.00454	–
[2], x1 = 0.5619	0.267 ± 0.00454	–
[2], x1 = 0.6157	0.26 ± 0.0043	–
[2], x1 = 0.6596	0.244 ± 0.00406	–
[2], x1 = 0.7081	0.225 ± 0.00382	–
[2], x1 = 0.7591	0.196 ± 0.00335	–
[2], x1 = 0.8107	0.165 ± 0.00287	–
[2], x1 = 0.857	0.132 ± 0.00239	–
[2], x1 = 0.9081	0.0902 ± 0.00179	–
[2], x1 = 0.9555	0.0467 ± 0.00115	–

CCOC(=O)CC [ethyl propanoate] + CCCCCCC
Details	excess molar enthalpy [kcal/mol]	excess molar volume [m3/mol]
[1], x1 = 0.0401	–	1.58e-07 ± 1.6e-08
[1], x1 = 0.0797	–	3.09e-07 ± 1.7e-08
[1], x1 = 0.1474	–	5.09e-07 ± 1.8e-08
[1], x1 = 0.2182	–	6.76e-07 ± 1.9e-08
[1], x1 = 0.2873	–	7.86e-07 ± 1.9e-08
[1], x1 = 0.3497	–	8.53e-07 ± 1.9e-08
[1], x1 = 0.4098	–	8.95e-07 ± 2e-08
[1], x1 = 0.5276	–	8.77e-07 ± 2e-08
[1], x1 = 0.5897	–	8.41e-07 ± 1.9e-08
[1], x1 = 0.6453	–	7.71e-07 ± 1.9e-08
[1], x1 = 0.701	–	7.23e-07 ± 1.9e-08
[1], x1 = 0.7534	–	6.41e-07 ± 1.8e-08
[1], x1 = 0.808	–	5.27e-07 ± 1.8e-08
[1], x1 = 0.8554	–	4.12e-07 ± 1.7e-08
[1], x1 = 0.9045	–	2.9e-07 ± 1.7e-08
[1], x1 = 0.9534	–	1.5e-07 ± 1.6e-08
[2], x1 = 0.0724	0.0766 ± 0.0016	–
[2], x1 = 0.1469	0.142 ± 0.00263	–
[2], x1 = 0.2238	0.196 ± 0.00335	–
[2], x1 = 0.294	0.234 ± 0.00406	–
[2], x1 = 0.3653	0.261 ± 0.0043	–
[2], x1 = 0.4286	0.273 ± 0.00454	–
[2], x1 = 0.4855	0.277 ± 0.00454	–
[2], x1 = 0.5345	0.274 ± 0.00454	–
[2], x1 = 0.5733	0.267 ± 0.00454	–
[2], x1 = 0.5847	0.264 ± 0.00454	–
[2], x1 = 0.6302	0.254 ± 0.0043	–
[2], x1 = 0.682	0.237 ± 0.00406	–
[2], x1 = 0.7393	0.213 ± 0.00359	–
[2], x1 = 0.7978	0.181 ± 0.00311	–
[2], x1 = 0.8563	0.142 ± 0.00263	–
[2], x1 = 0.9088	0.0966 ± 0.00191	–
[2], x1 = 0.963	0.0455 ± 0.00115	–
